Data: patent publication US20250059164A1, “IRAK DEGRADERS AND USES THEREOF” (Kymera Therapeutics, Inc., priority 2023, published 2025)

Biological target: T1, IRAK4 (Homo sapiens, UniProt Q9NWZ3)
T1 construct: endogenous in cells; host or cells: OCI-LY10
T1 sequence (Q9NWZ3 1-460): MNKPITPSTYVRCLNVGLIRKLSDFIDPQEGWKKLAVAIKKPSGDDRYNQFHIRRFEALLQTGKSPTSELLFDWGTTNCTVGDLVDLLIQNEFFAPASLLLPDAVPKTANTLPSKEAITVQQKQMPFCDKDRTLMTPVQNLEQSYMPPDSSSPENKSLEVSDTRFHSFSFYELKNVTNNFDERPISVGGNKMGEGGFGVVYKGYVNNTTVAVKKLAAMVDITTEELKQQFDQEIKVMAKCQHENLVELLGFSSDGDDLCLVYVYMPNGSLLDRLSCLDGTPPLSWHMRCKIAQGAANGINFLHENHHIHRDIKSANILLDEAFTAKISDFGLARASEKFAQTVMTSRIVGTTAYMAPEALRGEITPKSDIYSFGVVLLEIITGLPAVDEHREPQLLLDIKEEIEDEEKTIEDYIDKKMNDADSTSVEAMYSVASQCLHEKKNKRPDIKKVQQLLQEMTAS
Test: IRAK4 MSD degradation in OCI-LY10
Assay type: cell-based
Details: OCI-LY10 cells, 24 hrs, Meso Scale Discovery
Summary of the method: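 Remaining IRAK4 protein measured by Meso Scale Discovery electrochemiluminescence sandwich assay on lysates of OCI-LY10 cells. Cells were exposed for 4 to 24 hours (37° C., 5% CO2) to eight 1:3-diluted concentrations starting at 1 to 10 μM. DC50 derived by three-parameter logistic fitting.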

DC50 | SMILES
< 10 nM | Cn1c(=O)n(C2CCC(=O)NC2=O)c2cccc([C@@H]3CCN(C[C@H]4C[C@H](n5cc6cc(NC(=O)c7cccc(C(F)(F)F)n7)c(C#N)cc6n5)C4)C[C@H]3F)c21 (some centres unmarked) [I-94]
10 to 100 nM | Cn1c(=O)n(C2CCC(=O)NC2=O)c2cccc([C@H]3CCN(C[C@H]4CC[C@H](c5nc6ccc(NC(=O)c7cccc(C(F)(F)F)n7)cc6s5)CC4)C[C@@H]3F)c21 (some centres unmarked) [I-97]
< 10 nM | Cn1c(=O)n(C2CCC(=O)NC2=O)c2cccc([C@H]3CCN(C[C@H]4CC[C@H](c5nc6cc(C(C)(C)O)c(NC(=O)c7cccc(C(F)(F)F)n7)cc6s5)CC4)C[C@@H]3F)c21 (some centres unmarked) [I-103]
< 10 nM | CN(C[C@H]1CC[C@H](c2nc3cc(C(C)(C)O)c(NC(=O)c4cccc(C(F)(F)F)n4)cc3s2)CC1)[C@H]1CCN(c2cccc3c2n(C)c(=O)n3C2CCC(=O)NC2=O)C[C@H]1F (some centres unmarked) [I-105]
< 10 nM | Cn1c(=O)n(C2CCC(=O)NC2=O)c2cccc(OC3CC4(CCN(Cc5ccc(-n6cc(NC(=O)c7cnn8ccc(N9C[C@H]%10C[C@@H]9CO%10)nc78)c(C(F)F)n6)cc5)CC4)C3)c21 (some centres unmarked) [I-113]
< 10 nM | Cn1c(=O)n(C2CCC(=O)NC2=O)c2cccc(N3CC(C4CCN([C@H]5CC[C@H](n6cc(NC(=O)c7cnn8ccc(N9C[C@H]%10C[C@@H]9CO%10)nc78)c(C(F)F)n6)CC5)CC4(F)F)C3)c21 (some centres unmarked) [I-115]
10 to 100 nM | COc1cc2nn([C@H]3CC[C@H](CN4CCN(c5cccc6c5c(C)nn6C5CCC(=O)NC5=O)CC4)CC3)cc2cc1NC(=O)c1cncc(C)c1 (some centres unmarked) [I-118]
< 10 nM | O=C1CCN(c2cncc3c(N4CC(CO[C@@H]5CCN(C[C@H]6CC[C@H](n7cc(NC(=O)c8cnn9ccc(N%10C[C@H]%11C[C@@H]%10CO%11)nc89)c(C(F)F)n7)CC6)C[C@@H]5F)C4)cccc23)C(=O)N1 [I-120]
< 10 nM | Cn1nc(C2CCC(=O)NC2=O)c2cccc([C@@H]3CCN(C[C@H]4CC[C@H](n5cc6cc(NC(=O)c7cccc(C(F)(F)F)n7)ccc6n5)CC4)C[C@H]3F)c21 (some centres unmarked) [I-122]
10 to 100 nM | Cn1c(=O)n(C2CCC(=O)NC2=O)c2cccc(N3CC(COC[C@H]4CC[C@H](n5cc6cc(NC(=O)c7cccc(C(F)(F)F)n7)ccc6n5)CC4)C3)c21 (some centres unmarked) [I-123]
< 10 nM | O=C1CC[C@H](c2ccc(N3CC(N4CCN([C@H]5CC[C@H](n6cc(NC(=O)c7cnn8ccc(N9C[C@H]%10C[C@@H]9CO%10)nc78)c(C(F)F)n6)CC5)CC4)C3)cc2Cl)C(=O)N1 [I-124]
10 to 100 nM | O=C1CC[C@@H](c2ccc(N3CC(N4CCN([C@H]5CC[C@H](n6cc(NC(=O)c7cnn8ccc(N9C[C@H]%10C[C@@H]9CO%10)nc78)c(C(F)F)n6)CC5)CC4)C3)cc2Cl)C(=O)N1 [I-125]
10 to 100 nM | Cn1c(=O)n(C2CCC(=O)NC2=O)c2cccc(N3CC(COC[C@H]4CC[C@H](n5cc6cc(NC(=O)c7cccc(C(F)(F)F)c7)ccc6n5)CC4)C3)c21 (some centres unmarked) [I-126]
10 to 100 nM | COc1cc2nn([C@H]3CC[C@H](CN4CCC5(CCN(c6ccc(C7CCC(=O)NC7=O)c(Cl)c6)CC5)C(F)(F)C4)CC3)cc2cc1NC(=O)c1cncc(C#N)c1 (some centres unmarked) [I-130]
10 to 100 nM | COc1cc2nn([C@H]3CC[C@H](CN4CCC5(CCN(c6cccc7c6c(C)nn7C6CCC(=O)NC6=O)CC5)C(F)(F)C4)CC3)cc2cc1NC(=O)c1cncc(C#N)c1 (some centres unmarked) [I-131]
< 10 nM | CN(C[C@H]1CC[C@H](c2nc3cc(C(C)(C)O)c(NC(=O)c4cccc(C(F)(F)F)n4)cc3o2)CC1)[C@H]1CCN(c2cccc3c2n(C)c(=O)n3C2CCC(=O)NC2=O)C[C@@H]1F (some centres unmarked) [I-138]
< 10 nM | CN(C[C@H]1CC[C@H](c2nc3cc(C(C)(C)O)c(NC(=O)c4cccc(C(F)(F)F)n4)cc3o2)CC1)[C@@H]1CCN(c2cccc3c2n(C)c(=O)n3C2CCC(=O)NC2=O)C[C@@H]1F (some centres unmarked) [I-139]
> 200 nM | COc1cc2nc([C@H]3CC[C@H](CN4CCC5(CCN(c6cccc7c6n(C)c(=O)n7C6CCC(=O)NC6=O)CC5)C(F)(F)C4)CC3)sc2cc1NC(=O)c1cncc(C#N)c1 (some centres unmarked) [I-150]
10 to 100 nM | COc1cc2nn([C@H]3CC[C@H](CN4CCC5(CCN(c6cccc7c6n(C)c(=O)n7C6CCC(=O)NC6=O)CC5)C(F)(F)C4)CC3)cc2cc1NC(=O)c1cccc(C(F)(F)F)c1 (some centres unmarked) [I-151]
> 200 nM | COc1cc2nc(C3CCN(CC4(F)CCN(c5cccc6c5n(C)c(=O)n6C5CCC(=O)NC5=O)CC4)CC3)sc2cc1NC(=O)c1cncc(C#N)c1 (centres unmarked) [I-157]
10 to 100 nM | Cn1c(=O)n(C2CCC(=O)NC2=O)c2cccc(N3CCC4(CCN(C[C@H]5CC[C@H](n6cc7cc(NC(=O)c8cccc(C(F)(F)F)c8)ccc7n6)CC5)CC4(F)F)CC3)c21 (some centres unmarked) [I-158]
10 to 100 nM | Cn1c(=O)n(C2CCC(=O)NC2=O)c2cccc([C@@H]3CCN(C[C@H]4CC[C@H](n5cc6cc(NC(=O)c7cccnn7)ccc6n5)CC4)C[C@H]3F)c21 (some centres unmarked) [I-164]

DC50 | SMILES
< 10 nM | Cn1c(=O)n(C2CCC(=O)NC2=O)c2cccc([C@@H]3CCN(C[C@H]4CC[C@H](n5cc6cc(NC(=O)c7coc(C(F)(F)F)n7)ccc6n5)CC4)C[C@H]3F)c21 (some centres unmarked) [I-165]
> 200 nM | COc1cc2nc([C@H]3CC[C@H](CN4CCC5(CCN(c6cccc7c6n(C)c(=O)n7C6CCC(=O)NC6=O)CC5)C(F)(F)C4)CC3)cn2cc1NC(=O)c1cncc(C#N)c1 (some centres unmarked) [I-168]
10 to 100 nM | COc1cc2nc([C@H]3CC[C@H](CN4CC[C@@H](c5cccc6c5n(C)c(=O)n6C5CCC(=O)NC5=O)[C@H](F)C4)CC3)sc2cc1NC(=O)c1cncc(C(F)(F)F)n1 (some centres unmarked) [I-174]
10 to 100 nM | Cc1nn(C2CCC(=O)NC2=O)c2cccc([C@@H]3CCN(C[C@H]4CC[C@H](n5cc6cc(NC(=O)c7cccc(C(F)(F)F)n7)ncc6n5)CC4)C[C@H]3F)c12 (some centres unmarked) [I-187]
> 200 nM | COc1cc2nc([C@H]3CC[C@H](CN4CC[C@@H](c5cccc6c5n(C)c(=O)n6C5CCC(=O)NC5=O)[C@H](F)C4)CC3)cn2cc1NC(=O)c1cncc(C#N)c1 (some centres unmarked) [I-198]
10 to 100 nM | CN(C[C@H]1CC[C@H](n2cc(NC(=O)c3cnn4cccnc34)c(C(F)F)n2)CC1)[C@@H]1CCN(c2cccc3c2n(C)c(=O)n3C2CCC(=O)NC2=O)CC1(F)F (some centres unmarked) [I-202]
10 to 100 nM | CN(C[C@H]1CC[C@H](n2cc(NC(=O)c3cnn4cccnc34)c(C(F)F)n2)CC1)[C@H]1CCN(c2cccc3c2n(C)c(=O)n3C2CCC(=O)NC2=O)CC1(F)F (some centres unmarked) [I-203]
10 to 100 nM | CN(C[C@H]1CC[C@H](c2nc3cc(C(C)(C)O)c(NC(=O)c4cccc(C(F)(F)F)n4)cc3s2)CC1)[C@H]1CCN(c2cccc3c2n(C)c(=O)n3C2CCC(=O)NC2=O)C[C@@H]1F (some centres unmarked) [I-239]
> 200 nM | Cn1c(=O)n(C2CCC(=O)NC2=O)c2cccc(N3CC(OC[C@H]4CC[C@H](n5cc6cc(NC(=O)c7cccc(C(F)(F)F)n7)ccc6n5)CC4)C3)c21 (some centres unmarked) [I-242]
> 200 nM | Cn1c(=O)n(C2CCC(=O)NC2=O)c2cccc(N3CC(OC[C@H]4CC[C@H](n5cc6cc(NC(=O)c7cccc(C(F)(F)F)c7)ccc6n5)CC4)C3)c21 (some centres unmarked) [I-251]
> 200 nM | COc1cc2nc([C@H]3CC[C@H](CN4CC[C@@H](c5cccc6c5n(C)c(=O)n6C5CCC(=O)NC5=O)[C@H](F)C4)CC3)sc2cc1NC(=O)c1cncc(C#N)c1 (some centres unmarked) [I-277]
> 200 nM | COc1cn2nc([C@H]3CC[C@H](CN4CCC5(CCN(c6cccc7c6n(C)c(=O)n7C6CCC(=O)NC6=O)CC5)C(F)(F)C4)CC3)cc2cc1NC(=O)c1cncc(C#N)c1 (some centres unmarked) [I-282]
< 10 nM | Cc1nn(C2CCC(=O)NC2=O)c2ccc(F)c(N3CC(CN4CCN(C[C@H]5CC[C@H](n6cc(NC(=O)c7cnn8ccc(N9C[C@H]%10C[C@@H]9CO%10)nc78)c(C(F)F)n6)CC5)CC4)C3)c12 (some centres unmarked) [I-287]
> 200 nM | Cn1c(=O)n(C2CCC(=O)NC2=O)c2cccc([C@@H]3CCN(C[C@H]4CC[C@H](c5nc6ccc(NC(=O)c7cncc(C(F)(F)F)n7)cc6o5)CC4)C[C@H]3F)c21 (some centres unmarked) [I-295]
< 10 nM | COc1cn2nc([C@H]3CC[C@H](CN(C)[C@H]4CCN(c5cccc6c5n(C)c(=O)n6C5CCC(=O)NC5=O)C[C@@H]4F)CC3)cc2cc1NC(=O)c1cncc(C(F)(F)F)n1 (some centres unmarked) [I-301]
> 200 nM | Cn1c(=O)n(C2CCC(=O)NC2=O)c2cccc([C@@H]3CCN(C[C@H]4CC[C@H](n5cc6cc(NC(=O)c7cnnc(C(F)(F)F)c7)ccc6n5)CC4)C[C@H]3F)c21 (some centres unmarked) [I-316]
10 to 100 nM | Cn1c(=O)n(C2CCC(=O)NC2=O)c2cccc(C#CCN3CCN(C[C@H]4CC[C@H](n5cc(NC(=O)c6cnn7ccc(N8C[C@H]9C[C@@H]8CO9)nc67)c(C(F)F)n5)CC4)[C@@H](C(F)(F)F)C3)c21 (some centres unmarked) [I-320]
10 to 100 nM | Cn1c(=O)n(C2CCC(=O)NC2=O)c2cccc(C#CCN3CCN(C[C@H]4CC[C@H](n5cc(NC(=O)c6cnn7ccc(N8C[C@H]9C[C@@H]8CO9)nc67)c(C(F)F)n5)CC4)[C@H](C(F)(F)F)C3)c21 (some centres unmarked) [I-345]
< 10 nM | Cn1c(=O)n(C2CCC(=O)NC2=O)c2cccc(N3CCN(C[C@H]4CC[C@H](n5cc6cc(NC(=O)c7cncc(C(F)(F)F)n7)ccc6n5)CC4)CC3=O)c21 (some centres unmarked) [I-350]
< 10 nM | Cn1c(=O)n(C2CCC(=O)NC2=O)c2cccc(N3CCC4(CCN(C[C@H]5CC[C@H](n6cc7cc(NC(=O)c8cncc(C(F)(F)F)n8)c(C(C)(C)O)cc7n6)CC5)CC4(F)F)CC3)c21 (some centres unmarked) [I-354]
< 10 nM | Cn1c(=O)n(C2CCC(=O)NC2=O)c2cccc(C3CCN(C[C@H]4CC[C@H](n5cc6cc(NC(=O)c7cncc(C(F)(F)F)n7)ccc6n5)CC4)C(=O)C3)c21 (some centres unmarked) [I-358]
10 to 100 nM | Cn1c(=O)n(C2CCC(=O)NC2=O)c2cccc(N3CCN(C[C@H]4CC[C@H](n5cc6cc(NC(=O)c7cncc(C(F)(F)F)n7)ccc6n5)CC4)[C@H](C(F)(F)F)C3)c21 (some centres unmarked) [I-368]
